Columns and labels:
CECR2 = target: T1, CECR2 (Homo sapiens, UniProt Q9BXF3); test: SPR positive control (Figure S7D); type: binding
T1 construct: bromodomain

BRD9 = target: T2, BRD9 (Homo sapiens, UniProt Q9H8M2); test: SPR (Biacore T200, NiHC1500M chip); type: binding
T2 construct: bromodomain
T2 sequence (Q9H8M2 134-240 limits assumed): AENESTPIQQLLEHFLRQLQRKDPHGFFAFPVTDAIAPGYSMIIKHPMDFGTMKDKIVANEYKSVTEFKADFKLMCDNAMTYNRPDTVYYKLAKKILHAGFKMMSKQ

BPTF = target: T3, BPTF (Homo sapiens, UniProt Q12830); test: SPR (Biacore T200, NiHC1500M chip); type: binding
T3 construct: bromodomain

CRBN = target: T4, CRBN (Homo sapiens, UniProt Q96SW2); test: co-IP of BPTF with CRBN in 8d-treated Huh7 cells; pomalidomide rescue; N-methyl glutarimide control […] inactive; type: cell-based
T4 construct: with BPTF
T4 sequence (Q96SW2 whole entry, other chains not shown): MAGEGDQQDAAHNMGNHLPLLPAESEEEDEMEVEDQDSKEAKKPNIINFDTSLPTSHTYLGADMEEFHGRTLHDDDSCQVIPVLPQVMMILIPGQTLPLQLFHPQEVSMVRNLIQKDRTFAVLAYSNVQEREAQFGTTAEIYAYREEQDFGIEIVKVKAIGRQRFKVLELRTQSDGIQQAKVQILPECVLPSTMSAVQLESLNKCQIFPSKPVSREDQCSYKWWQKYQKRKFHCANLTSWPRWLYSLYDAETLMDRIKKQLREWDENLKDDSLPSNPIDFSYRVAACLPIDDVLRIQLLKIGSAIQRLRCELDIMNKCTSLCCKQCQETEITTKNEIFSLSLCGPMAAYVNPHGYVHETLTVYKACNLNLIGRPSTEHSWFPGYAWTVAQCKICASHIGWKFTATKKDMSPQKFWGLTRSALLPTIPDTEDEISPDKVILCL

T1 sequence (Q9BXF3 434-538 limits assumed): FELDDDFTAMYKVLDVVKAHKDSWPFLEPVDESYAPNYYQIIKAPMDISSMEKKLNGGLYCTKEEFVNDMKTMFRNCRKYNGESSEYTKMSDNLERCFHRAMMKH

Row | Compound | CECR2 bromodomain binding affinity (CECR2) | Kd (BRD9) | Kd (BPTF) | co-IP of BPTF with CRBN in 8d-treated Huh7 cells; pomalidomide rescue; N-methyl (CRBN)
1 | CN(C)CCCOc1ccc(-c2cc(NCCCn3cccn3)nc(S(C)(=O)=O)n2)cc1 [TP238] | minimal affinity for the CECR2 bromodomain (Figure S7D), which is known to strongly bind to TP238 as a positive control | – | – | –
2 | CS(=O)(=O)c1nc(NCCCn2cccn2)cc(-c2ccc(NCc3cn(CCOCCOCCOCCOCCOCCNc4cccc5c4C(=O)N(C4CCC(=O)NC4=O)C5=O)nn3)cc2)n1 (stereo not shown) [8d, 4-((17-(4-(((4-(6-((3-(1H-pyrazol-1-yl)propyl)amino)-2-(methylsulfonyl)pyrimidin-4-yl)phenyl)amino)methyl)-1H-1,2,3-triazol-1-yl)-3,6,9,12,15 pentaoxaheptadecyl)amino)-2-(2,6-dioxopiperidin-3-yl) isoindoline-1,3-dione] | – | 28.8 µM | 0.563 µM | through direct recruitment of CRBN, 8d facilitates the proteasome-dependent selective degradation of BPTF

From paper PMC11997503, “A BPTF-specific PROTAC degrader enhances NK cell-based cancer immunotherapy” (Molecular Therapy, 2025)
